Results as given in ChEMBL document CHEMBL1201862, “PubChem BioAssay data set” (2004).
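48-hour exposure; five concentrations; linearly interpolated endpoints. Here, GI50 denotes the concentration required for 50% inhibition of growth.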 Calls of active or inactive are those of the source. Cut-off read from the data, not from the text of the source: active = GI50 up to about 1.1 µM and inactive = higher.

Assays:
Test in all cases: DTP human tumour cell line panel, 48 h
M19-MEL = test system: M19-MEL
M14 = test system: M14
CAKI-1 = test system: CAKI-1
ACHN = test system: ACHN
DLD-1 = test system: DLD-1
SNB-75 = test system: SNB-75
UACC-62 = test system: UACC-62
NCI-H23 = test system: NCI-H23
SN12C = test system: SN12C
LXFL 529 = test system: LXFL 529
UO-31 = test system: UO-31
DMS-273 = test system: DMS-273
SF-268 = test system: SF-268
OVCAR-4 = test system: OVCAR-4
NCI-H226 = test system: NCI-H226
XF498 = test system: XF498
K562 = test system: K562
SK-MEL-2 = test system: SK-MEL-2
NCI-H522 = test system: NCI-H522
SR = test system: SR
MOLT-4 = test system: MOLT-4
HL-60 = test system: HL-60
CCRF-CEM = test system: CCRF-CEM
786-0 = test system: 786-0
SF-539 = test system: SF-539
IGROV-1 = test system: IGROV-1
COLO 205 = test system: COLO 205
DMS-114 = test system: DMS-114
SNB-78 = test system: SNB-78
A498 = test system: A498
SK-MEL-28 = test system: SK-MEL-28
SK-OV-3 = test system: SK-OV-3
HOP-92 = test system: HOP-92
HCT-116 = test system: HCT-116
HOP-62 = test system: HOP-62
RPMI-8226 = test system: RPMI-8226
HCC 2998 = test system: HCC 2998
Malme-3M = test system: Malme-3M
LOX IMVI = test system: LOX IMVI
TK-10 = test system: TK-10
U-251 = test system: U-251
SW-620 = test system: SW-620
OVCAR-5 = test system: OVCAR-5
DU-145 = test system: DU-145
MDA-MB-435 = test system: MDA-MB-435
SF-295 = test system: SF-295
HT-29 = test system: HT-29
SK-MEL-5 = test system: SK-MEL-5
OVCAR-3 = test system: OVCAR-3
HCT-15 = test system: HCT-15
EKVX = test system: EKVX
MCF7 = test system: MCF7
OVCAR-8 = test system: OVCAR-8
Hs-578T = test system: Hs-578T
A549 = test system: A549
NCI-H460 = test system: NCI-H460
RXF 393 = test system: RXF 393
KM12 = test system: KM12
PC-3 = test system: PC-3
T47D = test system: T47D
SNB-19 = test system: SNB-19
UACC-257 = test system: UACC-257
MDA-MB-231 = test system: MDA-MB-231
BT-549 = test system: BT-549
NCI/ADR-RES = test system: NCI/ADR-RES
MDA-N = test system: MDA-N

Cc1ncc(CBr)c(CBr)c1O
GI50 (M19-MEL): > 100 µM (inactive) | GI50 (M14): > 100 µM (inactive) | GI50 (CAKI-1): > 100 µM (inactive) | GI50 (ACHN): > 100 µM (inactive) | GI50 (DLD-1): > 100 µM (inactive) | GI50 (SNB-75): > 100 µM (inactive) | GI50 (UACC-62): > 100 µM (inactive) | GI50 (NCI-H23): > 100 µM (inactive) | GI50 (SN12C): > 100 µM (inactive) | GI50 (LXFL 529): > 100 µM (inactive) | GI50 (UO-31): 89.1 µM (inactive) | GI50 (DMS-273): > 100 µM (inactive) | GI50 (SF-268): > 100 µM (inactive) | GI50 (OVCAR-4): > 100 µM (inactive) | GI50 (NCI-H226): > 100 µM (inactive) | GI50 (XF498): > 100 µM (inactive) | GI50 (K562): > 100 µM (inactive) | GI50 (SK-MEL-2): > 100 µM (inactive) | GI50 (NCI-H522): 55.3 µM (inactive) | GI50 (SR): > 100 µM (inactive) | GI50 (MOLT-4): > 100 µM (inactive) | GI50 (HL-60): 60.8 µM (inactive) | GI50 (CCRF-CEM): 44.7 µM (inactive) | GI50 (786-0): > 100 µM (inactive) | GI50 (SF-539): > 100 µM (inactive) | GI50 (IGROV-1): > 100 µM (inactive) | GI50 (COLO 205): > 100 µM (inactive) | GI50 (DMS-114): > 100 µM (inactive) | GI50 (SNB-78): > 100 µM (inactive) | GI50 (A498): > 100 µM (inactive) | GI50 (SK-MEL-28): > 100 µM (inactive) | GI50 (SK-OV-3): > 100 µM (inactive) | GI50 (HOP-92): > 100 µM (inactive) | GI50 (HCT-116): > 100 µM (inactive) | GI50 (HOP-62): > 100 µM (inactive) | GI50 (RPMI-8226): > 100 µM (inactive) | GI50 (HCC 2998): > 100 µM (inactive) | GI50 (Malme-3M): > 100 µM (inactive)

Cc1cc(N(CCC#N)CCC#N)ccc1/C=C1\SC(=S)NC1=O
GI50 (LOX IMVI): > 100 µM (inactive) | GI50 (M14): 40.3 µM (inactive) | GI50 (CAKI-1): 41.4 µM (inactive) | GI50 (ACHN): > 100 µM (inactive) | GI50 (TK-10): > 100 µM (inactive) | GI50 (SNB-75): 11.6 µM (inactive) | GI50 (UACC-62): 48.6 µM (inactive) | GI50 (U-251): 42.5 µM (inactive) | GI50 (NCI-H23): > 100 µM (inactive) | GI50 (SN12C): > 100 µM (inactive) | GI50 (SW-620): > 100 µM (inactive) | GI50 (OVCAR-5): 34.9 µM (inactive) | GI50 (UO-31): 99.8 µM (inactive) | GI50 (DU-145): > 100 µM (inactive) | GI50 (SF-268): 23.6 µM (inactive) | GI50 (OVCAR-4): > 100 µM (inactive) | GI50 (NCI-H226): > 100 µM (inactive) | GI50 (K562): 40 µM (inactive) | GI50 (MDA-MB-435): 82.2 µM (inactive) | GI50 (SK-MEL-2): > 100 µM (inactive) | GI50 (NCI-H522): 19.4 µM (inactive) | GI50 (SF-295): 17.5 µM (inactive) | GI50 (HT-29): > 100 µM (inactive) | GI50 (SK-MEL-5): > 100 µM (inactive) | GI50 (SR): 22 µM (inactive) | GI50 (MOLT-4): 91 µM (inactive) | GI50 (OVCAR-3): 51.3 µM (inactive) | GI50 (HL-60): 32.5 µM (inactive) | GI50 (CCRF-CEM): 25.9 µM (inactive) | GI50 (786-0): 74.6 µM (inactive) | GI50 (SF-539): 69.5 µM (inactive) | GI50 (IGROV-1): 65.3 µM (inactive) | GI50 (HCT-15): > 100 µM | GI50 (EKVX): 51.3 µM (inactive) | GI50 (MCF7): 54.2 µM (inactive) | GI50 (COLO 205): > 100 µM (inactive) | GI50 (OVCAR-8): 49.3 µM (inactive) | GI50 (Hs-578T): 14.2 µM (inactive) | GI50 (A498): 49.8 µM (inactive) | GI50 (SK-MEL-28): > 100 µM (inactive) | GI50 (A549): 62.4 µM (inactive) | GI50 (SK-OV-3): 21.5 µM (inactive) | GI50 (HOP-92): 36.4 µM (inactive) | GI50 (NCI-H460): 30.3 µM (inactive) | GI50 (RXF 393): 19.8 µM (inactive) | GI50 (HCT-116): 54.2 µM (inactive) | GI50 (KM12): 62.2 µM (inactive) | GI50 (HOP-62): 22.7 µM (inactive) | GI50 (RPMI-8226): 17.2 µM (inactive) | GI50 (PC-3): 36.8 µM (inactive) | GI50 (HCC 2998): > 100 µM (inactive) | GI50 (T47D): 66.7 µM (inactive) | GI50 (SNB-19): > 100 µM (inactive) | GI50 (UACC-257): > 100 µM (inactive) | GI50 (Malme-3M): 52.1 µM (inactive) | GI50 (MDA-MB-231): > 100 µM (inactive) | GI50 (BT-549): 37.2 µM (inactive) | GI50 (NCI/ADR-RES): > 100 µM (inactive) | GI50 (MDA-N): > 100 µM (inactive)
